The subject of assay [1] is Beet Armyworm (Spodoptera exigua) ("BAW"), second instar larvae. The assay can be described thus: Bioassay on beet armyworm (BAW), 128-well diet tray assay. To be noted: for BAW (Biological Results, rating): Beet Armyworm (Spodoptera exigua), C = Not Tested; for pest or weed control at 50 µg/cm2: Spodoptera exigua; for BAW rating: Table ABC, species BAW, C = not tested, D = no activity noticed. Format: in vivo. Summed up:
(§1)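 After sealing with a clear self-adhesive lid, the trays are incubated at 25° C. with 14 h light and 10 h dark for 5 to 7 days; mortality in each well is recorded as a percentage and averaged across the eight wells.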

Assay [2] relates to Cabbage Looper (Trichoplusia ni) ("CL"), second instar larvae. The assay can be described thus: Bioassay on cabbage looper (CL), 128-well diet tray assay. Format: in vivo. The settings on record: for CL (Biological Results, rating): Cabbage Looper (Trichoplusia ni), C = Not Tested; for pest or weed control at 50 µg/cm2: Trichoplusia ni; for CL rating: Table ABC, species CL, C = not tested, D = no activity noticed. Summed up: as §1

Like-named read-outs stand apart in the source and are kept apart here.

`CC(C)c1ccc(N(C)C)cc1N1C(=O)CS/C1=N\C(=O)Nc1ccc(-c2ncn(-c3ccc(C(F)F)cn3)n2)cc1F` [Compound J347]: the “BAW (Biological Results, rating)” value in assay [1] was “A (50-100)”. For the same compound, the “CL (Biological Results, rating)” value in assay [2] is given as “A (50-100)”.

As to `CC(C)c1ccc(N(C)C)cc1N1C(=O)CS/C1=N\C(=O)Nc1ccc(-c2ccn(-c3ccc(C(F)(F)F)cn3)n2)cc1F` [Compound J349], the “BAW (Biological Results, rating)” value in assay [1] is “A (50-100)”. The “CL (Biological Results, rating)” value in assay [2] is given as “A (50-100)”.

In the case of `CC(C)c1cc(F)c(N(C)C)cc1N1C(=O)CS/C1=N\C(=O)Nc1ccc(-c2ncn(-c3ccc(C(F)F)cn3)n2)cc1F` [Compound J351], the “BAW (Biological Results, rating)” value in assay [1] was “A (50-100)”. Besides, the “CL (Biological Results, rating)” value in assay [2] is on record as “A (50-100)”.

With `CC(C)c1cc(F)c(N(C)C)cc1N1C(=O)CS/C1=N\C(=O)Nc1ccc(-c2ncn(-c3ccc(C(F)(F)F)cn3)n2)cc1F` [Compound J352], the “BAW (Biological Results, rating)” value in assay [1] is given as “A (50-100)”. The “CL (Biological Results, rating)” value in assay [2] is “A (50-100)”.

`COC(c1ccc(C)cc1N1C(=O)CS/C1=N\C(=O)Nc1ccc(-c2ncn(-c3ccc(C(F)F)cn3)n2)cc1F)C(F)(F)F` (stereo not shown) [Compound J353]: in assay [1], the “BAW (Biological Results, rating)” value is listed as “A (50-100)”. Moreover, in assay [2], the “CL (Biological Results, rating)” value was “A (50-100)”.

`CCOC(C)c1ccc(C)cc1N1C(=O)CS/C1=N\C(=O)Nc1ccc(-c2ncn(-c3ccc(C(F)F)cn3)n2)cc1F` (stereo not shown) [Compound J354]: the “BAW (Biological Results, rating)” value in assay [1] is listed as “A (50-100)”. Also, the “CL (Biological Results, rating)” value in assay [2] is recorded as “A (50-100)”.

For `COc1ccc(C(C)C)c(N2C(=O)CS/C2=N\C(=O)Nc2ccc(-c3ncn(-c4ccc(C(F)F)cn4)n3)cc2F)c1` [Compound J355], the pest or weed control at 50 µg/cm2 in assay [1] (read-out: BAW (Biological Results, rating)) lay within 50 to 100%; in assay [2] (read-out: CL (Biological Results, rating)), 50 to 100%.

For `Cc1cc(-c2ncn(-c3ccc(OCC#N)cc3)n2)ccc1NC(=O)/N=C1\SCC(=O)N1c1cc(N(C)C)ccc1C(C)C` [Compound J357, (Z)-1-(4-(1-(4-(Cyanomethoxy)phenyl)-1H-1,2,4-triazol-3-yl)-2-methylphenyl)-3-(3-(5-(dimethylamino)-2-isopropylphenyl)-4-oxothiazolidin-2-ylidene)urea], the pest or weed control at 50 µg/cm2 in assay [1] (read-out: BAW rating) and in assay [2] (read-out: CL rating) was 50 to 100% each time.

For the compound `COC(C)c1ccc(C)cc1N1C(=O)CS/C1=N\C(=O)Nc1ccc(-c2ncn(-c3ccc(OCC#N)cc3)n2)cc1C` (stereo not shown) [Compound J358, (Z)-1-(4-(1-(4-(Cyanomethoxy)phenyl)-1H-1,2,4-triazol-3-yl)-2-methylphenyl)-3-(3-(2-(1-methoxyethyl)-5-methylphenyl)-4-oxothiazolidin-2-ylidene)urea], the pest or weed control at 50 µg/cm2 in assay [1] (read-out: BAW rating) and in assay [2] (read-out: CL rating) was 50 to 100% each time.

Take `Cc1ccc(COCC(F)(F)F)c(N2C(=O)CS/C2=N\C(=O)Nc2ccc(-c3ncn(-c4ccc(OCC#N)cc4)n3)cc2C)c1` [Compound J359, (Z)-1-(4-(1-(4-(Cyanomethoxy)phenyl)-1H-1,2,4-triazol-3-yl)-2-methylphenyl)-3-(3-(5-methyl-2-((2,2,2-trifluoroethoxy)methyl)phenyl)-4-oxothiazolidin-2-ylidene)urea]: the pest or weed control at 50 µg/cm2 in assay [1] (read-out: BAW rating) and in assay [2] (read-out: CL rating) was 50 to 100% each time.

For `Cc1ccc(OCCC(F)(F)F)c(N2C(=O)CS/C2=N\C(=O)Nc2ccc(-c3ncn(-c4ccc(OCC#N)cc4)n3)cc2C)c1` [Compound J360, (Z)-1-(4-(1-(4-(Cyanomethoxy)phenyl)-1H-1,2,4-triazol-3-yl)-2-methylphenyl)-3-(3-(5-methyl-2-(3,3,3-trifluoropropoxy)phenyl)-4-oxothiazolidin-2-ylidene)urea], the pest or weed control at 50 µg/cm2 in assay [1] (read-out: BAW rating) and in assay [2] (read-out: CL rating) was 50 to 100% in each case.

With `COC(C)c1ccc(C)cc1N1C(=O)CS/C1=N\C(=O)Nc1ccc(-c2ncn(-c3ccc(S(=O)(=O)C(F)(F)F)cc3)n2)cc1F` (stereo not shown) [Compound J361, (Z)-1-(2-Fluoro-4-(1-(4-((trifluoromethyl)sulfonyl)phenyl)-1H-1,2,4-triazol-3-yl)phenyl)-3-(3-(2-(1-methoxyethyl)-5-methylphenyl)-4-oxothiazolidin-2-ylidene)urea], the pest or weed control at 50 µg/cm2 in assay [1] (read-out: BAW rating) and in assay [2] (read-out: CL rating) was 50 to 100% in each case.

In the case of `Cc1ccc(COCC(F)(F)F)c(N2C(=O)CS/C2=N\C(=O)Nc2ccc(-c3ncn(-c4ccc(SC(F)(F)F)cc4)n3)cc2)c1` [Compound J367, (Z)-1-(3-(5-Methyl-2-((2,2,2-trifluoroethoxy)methyl)phenyl)-4-oxothiazolidin-2-ylidene)-3-(4-(1-(4-((trifluoromethyl)thio)phenyl)-1H-1,2,4-triazol-3-yl)phenyl)urea], the pest or weed control at 50 µg/cm2 in assay [1] (read-out: BAW rating) and in assay [2] (read-out: CL rating) was 50 to 100% each time.

For the compound `Cc1ccc(OCCC(F)(F)F)c(N2C(=O)CS/C2=N\C(=O)Nc2ccc(-c3ncn(-c4ccc(S(=O)(=O)C(F)(F)F)cc4)n3)cc2F)c1` [Compound J369, (Z)-1-(2-Fluoro-4-(1-(4-((trifluoromethyl)sulfonyl)phenyl)-1H-1,2,4-triazol-3-yl)phenyl)-3-(3-(5-methyl-2-(3,3,3-trifluoropropoxy)phenyl)-4-oxothiazolidin-2-ylidene)urea], the pest or weed control at 50 µg/cm2 in assay [1] (read-out: BAW rating) and in assay [2] (read-out: CL rating) was 50 to 100% throughout.

In the case of `CCCc1ccc(N(C)C)cc1N1C(=O)CS/C1=N\C(=O)Nc1ccc(-c2ncn(-c3ccc(S(=O)(=O)C(F)(F)F)cc3)n2)cc1F` [Compound J370, (Z)-1-(3-(5-(Dimethylamino)-2-propylphenyl)-4-oxothiazolidin-2-ylidene)-3-(2-fluoro-4-(1-(4-((trifluoromethyl)sulfonyl)phenyl)-1H-1,2,4-triazol-3-yl)phenyl)urea], the pest or weed control at 50 µg/cm2 in assay [1] (read-out: BAW rating) and in assay [2] (read-out: CL rating) was 50 to 100% in each case.

Consider `CC(C)c1cc(F)c(N(C)C)cc1N1C(=O)CS/C1=N\C(=O)Nc1ccc(-c2ncn(-c3ccc(S(=O)(=O)C(F)(F)F)cc3)n2)cc1F` [Compound J371, (Z)-1-(3-(5-(dimethylamino)-4-fluoro-2-isopropylphenyl)-4-oxothiazolidin-2-ylidene)-3-(2-fluoro-4-(1-(4-((trifluoromethyl)sulfonyl)phenyl)-1H-1,2,4-triazol-3-yl)phenyl)urea], for which the pest or weed control at 50 µg/cm2 in assay [1] (read-out: BAW rating) and in assay [2] (read-out: CL rating) was 50 to 100% throughout.

As to `N#Cc1ccc(OCCC(F)(F)F)c(N2C(=O)CS/C2=N\C(=O)Nc2ccc(-c3ncn(-c4ccc(S(=O)(=O)C(F)(F)F)cc4)n3)cc2F)c1` [Compound J372, (Z)-1-(3-(5-Cyano-2-(3,3,3-trifluoropropoxy)phenyl)-4-oxothiazolidin-2-ylidene)-3-(2-fluoro-4-(1-(4-((trifluoromethyl)sulfonyl)phenyl)-1H-1,2,4-triazol-3-yl)phenyl)urea], the pest or weed control at 50 µg/cm2 in assay [1] (read-out: BAW rating) and in assay [2] (read-out: CL rating) was 50 to 100% in each case.

Take `Cc1ccc(OCCC(F)(F)F)c(N2C(=O)CS/C2=N\C(=O)Nc2ccc(-c3ncn(-c4ccc(S(=O)(=O)C(F)(F)F)cc4)n3)cc2C)c1` [Compound J373, (Z)-1-(3-(5-Methyl-2-(3,3,3-trifluoropropoxy)phenyl)-4-oxothiazolidin-2-ylidene)-3-(2-methyl-4-(1-(4-((trifluoromethyl)sulfonyl)phenyl)-1H-1,2,4-triazol-3-yl)phenyl)urea]: the pest or weed control at 50 µg/cm2 in assay [1] (read-out: BAW rating) and in assay [2] (read-out: CL rating) was 50 to 100% each time.

In the case of `CCCc1ccc(N(C)C)cc1N1C(=O)CS/C1=N\C(=O)Nc1ccc(-c2ncn(-c3ccc(S(=O)(=O)C(F)(F)F)cc3)n2)cc1C` [Compound J374, (Z)-1-(3-(5-(Dimethylamino)-2-propylphenyl)-4-oxothiazolidin-2-ylidene)-3-(2-methyl-4-(1-(4-((trifluoromethyl)sulfonyl)phenyl)-1H-1,2,4-triazol-3-yl)phenyl)urea], the pest or weed control at 50 µg/cm2 in assay [1] (read-out: BAW rating) and in assay [2] (read-out: CL rating) was 50 to 100% throughout.

As to `Cc1cc(-c2ncn(-c3ccc(S(=O)(=O)C(F)(F)F)cc3)n2)ccc1NC(=O)/N=C1\SCC(=O)N1c1cc(N(C)C)c(F)cc1C(C)C` [Compound J375, (Z)-1-(3-(5-(Dimethylamino)-4-fluoro-2-isopropylphenyl)-4-oxothiazolidin-2-ylidene)-3-(2-methyl-4-(1-(4-((trifluoromethyl)sulfonyl)phenyl)-1H-1,2,4-triazol-3-yl)phenyl)urea], the pest or weed control at 50 µg/cm2 in assay [1] (read-out: BAW rating) and in assay [2] (read-out: CL rating) was 50 to 100% in each case.

In the case of `Cc1cc(-c2ncn(-c3ccc(S(=O)(=O)C(F)(F)F)cc3)n2)ccc1NC(=O)/N=C1\SCC(=O)N1c1cc(C#N)ccc1OCCC(F)(F)F` [Compound J376, (Z)-1-(3-(5-Cyano-2-(3,3,3-trifluoropropoxy)phenyl)-4-oxothiazolidin-2-ylidene)-3-(2-methyl-4-(1-(4-((trifluoromethyl)sulfonyl)phenyl)-1H-1,2,4-triazol-3-yl)phenyl)urea], the pest or weed control at 50 µg/cm2 in assay [1] (read-out: BAW rating) and in assay [2] (read-out: CL rating) was 50 to 100% throughout.

Turning to `COC(c1ccc(C)cc1N1C(=O)CS/C1=N\C(=O)Nc1ccc(-c2ncn(-c3ccc(C(F)(F)F)cn3)n2)cc1F)C(F)(F)F` (stereo not shown) [Compound J377], the BAW rating entry in assay [1] is “A (50-100)”. Also, the CL rating result in assay [2] is reported as “A (50-100)”.

`CCOC(C)c1ccc(C)cc1N1C(=O)CS/C1=N\C(=O)Nc1ccc(-c2ncn(-c3ccc(C(F)(F)F)cn3)n2)cc1F` (stereo not shown) [Compound J378]: the BAW rating entry in assay [1] is “A (50-100)”. Also, in assay [2], the CL rating entry was “A (50-100)”.
